Measured values reported in the supplement of paper PMC10331698.
± gives the standard deviation of the averaged measurements.

What was measured:
Assay in all cases: level (log10 ratio to DMSO vehicle control); higher = higher biomarker level / cell amount than vehicle control
[1] = compound: O=C(O)C=C(C(F)(F)F)C(F)(F)F [3,3-Bis(trifluoromethyl)-2-propenoic acid] (in DMSO)
Procedure: (§1)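 BioMAP Diversity Plus panel of 12 human primary cell co-culture systems (3C, 4H, LPS, SAg, BT, BF4T, BE3C, CASM3C, HDF3CGF, KF3CT, MyoF, Mphg). Compounds were added 1 h before stimulation and left for 24 h (MyoF 48 h; BT 72 h for soluble read-outs or 6 d for IgG). Biomarkers were read by ELISA, cytotoxicity by SRB, PBMC viability and proliferation by Alamar Blue. Each well value was divided by the mean of 8 DMSO control wells on the same plate and log10 transformed; duplicate blinded samples were tested at 4 concentrations.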

Perfluoroundecanoic acid = compound: O=C(O)C(F)(F)C(F)(F)C(F)(F)C(F)(F)C(F)(F)C(F)(F)C(F)(F)C(F)(F)C(F)(F)C(F)(F)F [Perfluoroundecanoic acid] (in DMSO); conditions: 6700 nM
Procedure: as §1

[2] = compound: O=S(=O)(O)C(F)(F)C(F)(F)C(F)(F)C(F)(F)C(F)(F)C(F)(F)C(F)(F)F [Perfluoroheptanesulfonic acid] (in DMSO)
Procedure: as §1

[3] = compound: OCCC(F)(F)C(F)(F)C(F)(F)C(F)(F)F [4:2 Fluorotelomer alcohol] (in DMSO)
Procedure: as §1

[4] = compound: O=S(=O)(O)CCC(F)(F)C(F)(F)C(F)(F)C(F)(F)C(F)(F)C(F)(F)C(F)(F)C(F)(F)F [8:2 Fluorotelomer sulfonic acid] (in DMSO)
Procedure: as §1

[5] = compound: OCC(F)(F)OC(F)(F)C(F)(F)OC(F)(F)C(F)(F)OC(F)(F)CO [1H,1H,11H,11H-Perfluorotetraethylene glycol] (in DMSO)
Procedure: as §1

[6] = compound: CCOC(=O)CC(=O)C(F)(F)C(F)(F)F [Ethyl pentafluoropropionyl acetate] (in DMSO)
Procedure: as §1

## MyoF:CXCL8/IL-8
[1]; 6700 nM
  level (log10): 0.0915 ± 0.00071
[1]; 20000 nM
  level (log10): 0.107 ± 0.015
[1]; 60000 nM
  level (log10): 0.154 ± 0.016
Perfluoroundecanoic acid
  level (log10): 0.0245 ± 0.0092
[2]; 1500 nM
  level (log10): 0.0195 ± 0.011
[2]; 4400 nM
  level (log10): 0.022 ± 0.011
[2]; 13000 nM
  level (log10): 0.026
[2]; 40000 nM
  level (log10): 0.032 ± 0.023
[3]; 6700 nM
  level (log10): -0.039
[3]; 20000 nM
  level (log10): -0.0475 ± 0.0021
[3]; 60000 nM
  level (log10): 0.0435 ± 0.0078
[4]; 6700 nM
  level (log10): -0.0085 ± 0.03
[4]; 20000 nM
  level (log10): -0.0885 ± 0.046
[4]; 60000 nM
  level (log10): -0.157 ± 0.016
[5]; 6700 nM
  level (log10): -0.0185 ± 0.011
[5]; 20000 nM
  level (log10): -0.0215 ± 0.00071
[5]; 60000 nM
  level (log10): -0.013 ± 0.018
[6]; 6700 nM
  level (log10): -0.007 ± 0.018
[6]; 20000 nM
  level (log10): -0.0025 ± 0.021
[6]; 60000 nM
  level (log10): 0.0105 ± 0.029

## MyoF:Collagen I
[1]; 6700 nM
  level (log10): -0.031 ± 0.0057
[1]; 20000 nM
  level (log10): -0.046 ± 0.021
[1]; 60000 nM
  level (log10): -0.055 ± 0.04
Perfluoroundecanoic acid
  level (log10): -0.421 ± 0.0092
[2]; 1500 nM
  level (log10): -0.0035 ± 0.0021
[2]; 4400 nM
  level (log10): 0.0135 ± 0.005
[2]; 13000 nM
  level (log10): -0.009 ± 0.0085
[2]; 40000 nM
  level (log10): 0.0105 ± 0.011
[3]; 6700 nM
  level (log10): -0.031 ± 0.044
[3]; 20000 nM
  level (log10): -0.031 ± 0.041
[3]; 60000 nM
  level (log10): 0.01 ± 0.028
[4]; 6700 nM
  level (log10): 0.004 ± 0.0042
[4]; 20000 nM
  level (log10): -0.0265 ± 0.026
[4]; 60000 nM
  level (log10): -0.024 ± 0.0071
[5]; 6700 nM
  level (log10): -0.0005 ± 0.026
[5]; 20000 nM
  level (log10): 0.001 ± 0.03
[5]; 60000 nM
  level (log10): -0.0495 ± 0.016
[6]; 6700 nM
  level (log10): -0.0085 ± 0.026
[6]; 20000 nM
  level (log10): -0.0155 ± 0.036
[6]; 60000 nM
  level (log10): -0.014 ± 0.041

## MyoF:Collagen III
[1]; 6700 nM
  level (log10): -0.021 ± 0.0014
[1]; 20000 nM
  level (log10): -0.0335 ± 0.00071
[1]; 60000 nM
  level (log10): -0.064 ± 0.011
Perfluoroundecanoic acid
  level (log10): -0.3895 ± 0.00071
[2]; 1500 nM
  level (log10): -0.0035 ± 0.022
[2]; 4400 nM
  level (log10): 0.002 ± 0.0085
[2]; 13000 nM
  level (log10): -0.0195 ± 0.013
[2]; 40000 nM
  level (log10): -0.006 ± 0.025
[3]; 6700 nM
  level (log10): -0.011 ± 0.038
[3]; 20000 nM
  level (log10): 0.007 ± 0.042
[3]; 60000 nM
  level (log10): 0.0245 ± 0.032
[4]; 6700 nM
  level (log10): -0.008 ± 0.017
[4]; 20000 nM
  level (log10): -0.04 ± 0.031
[4]; 60000 nM
  level (log10): -0.0355 ± 0.023
[5]; 6700 nM
  level (log10): -0.002
[5]; 20000 nM
  level (log10): -0.0085 ± 0.011
[5]; 60000 nM
  level (log10): -0.0415 ± 0.0078
[6]; 6700 nM
  level (log10): -0.0045 ± 0.016
[6]; 20000 nM
  level (log10): -0.0045 ± 0.011
[6]; 60000 nM
  level (log10): -0.009 ± 0.0042

## MyoF:Collagen IV
[1]; 6700 nM
  level (log10): -0.0215 ± 0.029
[1]; 20000 nM
  level (log10): -0.055 ± 0.025
[1]; 60000 nM
  level (log10): -0.0345 ± 0.028
Perfluoroundecanoic acid
  level (log10): 0.57 ± 0.013
[2]; 1500 nM
  level (log10): 0.013 ± 0.018
[2]; 4400 nM
  level (log10): -0.017 ± 0.0057
[2]; 13000 nM
  level (log10): -0.012 ± 0.013
[2]; 40000 nM
  level (log10): 0.0025 ± 0.023
[3]; 6700 nM
  level (log10): 0 ± 0.0057
[3]; 20000 nM
  level (log10): -0.0095 ± 0.012
[3]; 60000 nM
  level (log10): 0.0285 ± 0.05
[4]; 6700 nM
  level (log10): -0.0215 ± 0.019
[4]; 20000 nM
  level (log10): -0.0335 ± 0.036
[4]; 60000 nM
  level (log10): 0.005 ± 0.0099
[5]; 6700 nM
  level (log10): -0.012 ± 0.0014
[5]; 20000 nM
  level (log10): -0.0015 ± 0.011
[5]; 60000 nM
  level (log10): 0.0245 ± 0.021
[6]; 6700 nM
  level (log10): 0.0045 ± 0.018
[6]; 20000 nM
  level (log10): 0.01 ± 0.0028
[6]; 60000 nM
  level (log10): 0.0045 ± 0.018

## MyoF:Decorin
[1]; 6700 nM
  level (log10): -0.0275 ± 0.0021
[1]; 20000 nM
  level (log10): -0.043 ± 0.024
[1]; 60000 nM
  level (log10): -0.057 ± 0.045
Perfluoroundecanoic acid
  level (log10): -0.026 ± 0.035
[2]; 1500 nM
  level (log10): -0.0075 ± 0.015
[2]; 4400 nM
  level (log10): -0.006 ± 0.0042
[2]; 13000 nM
  level (log10): 0.009 ± 0.0014
[2]; 40000 nM
  level (log10): 0.0615 ± 0.011
[3]; 6700 nM
  level (log10): -0.0155 ± 0.066
[3]; 20000 nM
  level (log10): 0.003 ± 0.028
[3]; 60000 nM
  level (log10): 0.0645 ± 0.026
[4]; 6700 nM
  level (log10): 0.0555 ± 0.029
[4]; 20000 nM
  level (log10): 0.024 ± 0.03
[4]; 60000 nM
  level (log10): -0.001 ± 0.0014
[5]; 6700 nM
  level (log10): -0.009
[5]; 20000 nM
  level (log10): -0.013
[5]; 60000 nM
  level (log10): 0.019 ± 0.017
[6]; 6700 nM
  level (log10): -0.0135 ± 0.026
[6]; 20000 nM
  level (log10): -0.0025 ± 0.016
[6]; 60000 nM
  level (log10): 0.023 ± 0.014

## MyoF:MMP-1
[1]; 6700 nM
  level (log10): -0.0075 ± 0.0092
[1]; 20000 nM
  level (log10): -0.0445 ± 0.0078
[1]; 60000 nM
  level (log10): -0.0085 ± 0.093
Perfluoroundecanoic acid
  level (log10): -0.036 ± 0.018
[2]; 1500 nM
  level (log10): 0.0105 ± 0.039
[2]; 4400 nM
  level (log10): -0.0055 ± 0.015
[2]; 13000 nM
  level (log10): -0.03 ± 0.0085
[2]; 40000 nM
  level (log10): 0.01 ± 0.044
[3]; 6700 nM
  level (log10): -0.0345 ± 0.04
[3]; 20000 nM
  level (log10): -0.026 ± 0.027
[3]; 60000 nM
  level (log10): 0.0215 ± 0.0064
[4]; 6700 nM
  level (log10): -0.0245 ± 0.043
[4]; 20000 nM
  level (log10): -0.0365 ± 0.028
[4]; 60000 nM
  level (log10): 0.0175 ± 0.005
[5]; 6700 nM
  level (log10): 0 ± 0.027
[5]; 20000 nM
  level (log10): -0.0085 ± 0.015
[5]; 60000 nM
  level (log10): 0.0465 ± 0.083
[6]; 6700 nM
  level (log10): -0.0245 ± 0.03
[6]; 20000 nM
  level (log10): -0.0125 ± 0.011
[6]; 60000 nM
  level (log10): 0.034 ± 0.058

## MyoF:PAI-I
[1]; 6700 nM
  level (log10): -0.005 ± 0.0042
[1]; 20000 nM
  level (log10): 0.0045 ± 0.0064
[1]; 60000 nM
  level (log10): 0.005 ± 0.02
Perfluoroundecanoic acid
  level (log10): -0.01 ± 0.018
[2]; 1500 nM
  level (log10): 0.008 ± 0.0085
[2]; 4400 nM
  level (log10): 0.0085 ± 0.00071
[2]; 13000 nM
  level (log10): 0.005 ± 0.0028
[2]; 40000 nM
  level (log10): 0.019 ± 0.023
[3]; 6700 nM
  level (log10): -0.0185 ± 0.018
[3]; 20000 nM
  level (log10): -0.0215 ± 0.019
[3]; 60000 nM
  level (log10): -0.0155 ± 0.00071
[4]; 6700 nM
  level (log10): -0.008 ± 0.011
[4]; 20000 nM
  level (log10): -0.009 ± 0.0042
[4]; 60000 nM
  level (log10): 0.0185 ± 0.019
[5]; 6700 nM
  level (log10): -0.01 ± 0.02
[5]; 20000 nM
  level (log10): -0.0135 ± 0.013
[5]; 60000 nM
  level (log10): -0.01 ± 0.018
[6]; 6700 nM
  level (log10): -0.0005 ± 0.021
[6]; 20000 nM
  level (log10): 0.006 ± 0.017
[6]; 60000 nM
  level (log10): 0.0055 ± 0.015
